Data: US9468646B2, “Increased dosage of efavirenz for the treatment of cancer” (Alienor Farma, priority 2013, dated 2016)
“And” between values parts separate entries of the source, which are not always exact repeats. Identical values can stand only once. Like-named read-outs stand apart in the source and are kept apart here.

Tests used:
[1] = FAVE study: Efavirenz plasma concentration (UPLC-MS/MS); format: in vivo, human; conditions: 600 mg/day
Text: Sixty-one patients were included in the study and fifty-three patients had no violation of the eligibility criteria and received Efavirenz at least once (general population). The assessment of Efavirenz plasma concentrations was an optional exploratory objective to which the patients had to expressly consent. Plasma Efavirenz concentrations at the three month time point were available for 41 patients that were used for the exploratory analysis. Blood samples for the evaluation of Efavirenz plasma concentrations were taken at three months after the start of Efavirenz treatment. For Efavirenz plasma concentration determination, 10 ml of blood were collected using sodium or lithium heparinate tubes. After each blood collection, the tubes of blood were centrifuged for 5 minutes at 5000 g. Plasma was collected in polypropylene tubes. The plasma tubes of each subject were packed and stored in appropriately labelled plastic frost-resistant bags and stored at −20° C. until analysis. Samples were sent to a pharmacokinetic analysis laboratory for Efavirenz concentration analysis that was performed using a validated mass-spectrometry coupled to liquid chromatography (UPLC-MS/MS) method. […] Calibration curves were obtained by analysis of standard solutions prepared in plasma in the range 100-10000 ng/mL and limit of quantification (LOQ) was 2.5 ng/mL.

[2] = ESCALE study: Efavirenz plasma concentration depending on daily dose (UPLC-MS/MS); format: in vivo, human; conditions: for mean plasma concentration of Efavirenz: three patients
Text: The […] clinical study is a single arm, single center (Bergonie Institute), and dose escalation phase I study. Objectives of this study are to assess the safety, tolerability, and recommended dose of Efavirenz administered orally, by continuous once-daily administration in patients with solid tumors (no pancreatic cancer) and Non-Hodgkin Lymphoma (NHL) who have failed chemotherapy treatment. The scheme of the study is a dose escalation evaluated by continual reassessment method likelihood approach (O'Quickley, 1996). […] The maximal subject number assessable is 30 patients. Blood samples for the evaluation of Efavirenz plasma concentrations were taken at 14 days, 28 days after the start of Efavirenz treatment. For Efavirenz plasma concentration determination, 10 ml of blood were collected using sodium or lithium heparinate tubes. After each blood collection, the tubes of blood were centrifuged for 5 minutes at 5000 g. Plasma was collected in polypropylene tubes. The plasma tubes of each subject were packed and stored in appropriately labelled plastic frost-resistant bags and stored at -20° C. until analysis. Samples were sent to a pharmacokinetic analysis laboratory for Efavirenz concentration analysis that was performed using a validated mass-spectrometry coupled to liquid chromatography (UPLC-MS/MS) method. […] The sample was vortex-mixed for 30 sec, and then 5 mL of diethyl ether was added. After 15 min under agitation, the organic and aqueous phases were separated by centrifugation at 3000 rpm for 10 min. […] The residue was re-dissolved in 150 μL of methanol. The UPLC-MS/MS unit consisted of Waters ACQUITY UPLC® instrument coupled with an Acquity TQD® detector. Separations were performed at 40° C. on an Acquity UPLC® BEH C18 column (50*2.1 mm) at a flow rate of 0.3 mL/min. Gradient elution was performed over 2.3 minutes using a combination of acetonitrile and ammonium formate buffer (4 mM) as mobile phase. […] Calibration curves were obtained by analysis of standard solutions prepared in plasma in the range 100-10000 ng/mL and limit of quantification (LOQ) was 2.5 ng/mL.

[3] = cited from earlier work
[4] = rat, intravenous injection of 5 mg/kg; cited from earlier work
[5] = Pharmacokinetic study in rats (Balani et al 1999); format: in vivo; conditions: rat, intravenous injection of 5 mg/kg, converted from μM
[6] = test system: hormone refractory prostate cancer; test: FAVE follow up study: progression free survival (RECIST) and overall survival, ITT analysis; format: in vivo, human
Protocol: For the exploratory analysis, following the latest recommendations of the Prostate Cancer Clinical Trials Working Group (Scher, 2008), PSA progression was defined as an increase of more than 25% over the baseline and an increase in the concentrations of PSA of at least 2 ng/ml. The clinical symptoms, the number of new bone metastasis and the global response to treatment (evaluated by the RECIST criteria) were also recorded. After three months, the global response and the overall survival were evaluated in a follow up study. This approach was followed by an interventional approach aimed to establish a causal relationship between dose and efficacy of the treatment. In this case after three months of treatment at the 600 mg/day dose, the doses of Efavirenz were progressively raised to reach 1.2 g/day. Differences in disease progression as a function of plasma Efavirenz concentrations were confirmed in the follow up study. […] Log-rank Mantel-Cox's test, the <1500 and 1500-3000 groups were cumulated for statistical analysis). […] These thirteen patients were used to constitute the dose escalation group.

[7] = test system: metastatic hormone-refractory prostate cancer; test: FAVE study: PSA progression at 3 months under Efavirenz; format: in vivo, human; conditions: 600 mg/day; for PSA progression (share of subjects): 3 months
Protocol: For the exploratory analysis, following the latest recommendations of the Prostate Cancer Clinical Trials Working Group (Scher, 2008), PSA progression was defined as an increase of more than 25% over the baseline and an increase in the concentrations of PSA of at least 2 ng/ml. The clinical symptoms, the number of new bone metastasis and the global response to treatment (evaluated by the RECIST criteria) were also recorded. After three months, the global response and the overall survival were evaluated in a follow up study. Patients received 600 mg of Efavirenz per day and, during Efavirenz treatment, hormone therapy was maintained. […] However, it is difficult to predict precisely the efficacious dose in humans based on preclinical data. For this reason, the goal of the FAVE study was twofold: 1. […] Explore the relationship between the dose of the compound and clinical efficacy. In order to establish the minimal efficacious dose that could be effective for the treatment of prostate cancer the inventor used a correlational approach in which plasma concentrations of Efavirenz were related to treatment efficacy measured at the three month time point. Sixty-one patients were included in the study and fifty-three patients had no violation of the eligibility criteria and received Efavirenz at least once (general population). The assessment of Efavirenz plasma concentrations was an optional exploratory objective to which the patients had to expressly consent. Plasma Efavirenz concentrations at the three month time point were available for 41 patients that were used for the exploratory analysis.

[8] = test system: L1-RT; conditions: human tumor cell lines; cited from earlier work

O=C1Nc2ccc(Cl)cc2[C@@](C#CC2CC2)(C(F)(F)F)O1 [Efavirenz]
patients with Efavirenz plasma concentration of at least 1500 ng/ml ([1]; 3 months, 41 patients): 70% | concentration at 3 months ([1]; human, plasma, cancer patients): 2140 ng/mL | mean plasma concentration of Efavirenz ([2]; 1800 mg/day): 3712 ng/mL and > 3000 ng/mL and > 3500 ng/mL | mean plasma concentration of Efavirenz ([2]; 2200 mg/day): 7364 ng/mL and > 6500 ng/mL | patients with Efavirenz plasma concentration of at least 3000 ng/ml ([2]; daily dose between 1800 and 2200 mg): 84% | subjects with plasma concentrations above 1500 ng/ml ([3]; 600 mg/day (Marzolini, 2001)): 70-80% | Efavirenz plasma concentration reached ([3]; 600 mg/day, patients with two loss or decrease of function CYP2B6 alleles (Rotger, 2007)): at least 3000 ng/ml | maximal plasma concentration [4]: 5 µM | maximal plasma concentration [5]: 1578 ng/mL | median progression free survival ([6]; dose escalation group: up to 1200 mg/day, originally <3000 ng/ml, 13 patients): 10 months | median progression free survival ([6]; low (<1500 ng/ml) and intermediate (1500-3000 ng/ml) groups cumulated): 3 months | median progression free survival ([6]; plasma Efavirenz 1500-3000 ng/ml group): 3 months | median progression free survival ([6]; plasma Efavirenz <1500 ng/ml group): 3 months | median progression free survival ([6]; plasma Efavirenz <3000 ng/ml, no dose escalation (600 mg/day)): 3 months | median progression free survival ([6]; plasma Efavirenz >3000 ng/ml group): 17 months | PSA progression (share of subjects) ([7]; plasma Efavirenz 1500-3000 ng/ml group, N=22): 81.8% | PSA progression (share of subjects) ([7]; plasma Efavirenz <1500 ng/ml group, N=12): 83.3% | non-progressions for PSA levels at 3 months (share of patients) ([7]; all treated patients, N=53): 28% | patients in whom the disease continued to progress (PSA) at 3 months ([7]; all treated patients, N=53): 72%

Cc1ccnc2c1NC(=O)c1cccnc1N2C1CC1 [Nevirapine]
reverse transcriptase activity of L1-RT [8]: able to inhibit
